Test results taken from PubChem BioAssay AID248 (DTP/NCI, 2004).
Values joined by “and” are separate entries in the source; they are usually repeats but may differ in a detail not shown here. Identical values can stand only once. Inconclusive results and toxic doses are left out.

Test system: L1210 leukemia ip in BDF1 mice, survival T/C
Assay: NCI In Vivo Anticancer Drug Screen. Data for tumor model L1210 Leukemia (intraperitoneal) in B6D2F1 (BDF1) mice
Details: endpoint: mean survival time, higher = longer survival
Method in brief: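 Value reflects the ratio of survival in compound-treated mice to survival in vehicle-treated controls, with both groups carrying the same transplanted tumor.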

[1] = dose: 100.0 mg/kg/injection, schedule: Q01DX001 (ip), vehicle: saline
[2] = dose: 200.0 mg/kg/injection, schedule: Q01DX001 (ip), vehicle: saline
[3] = dose: 400.0 mg/kg/injection, schedule: Q01DX001 (ip), vehicle: saline
[4] = dose: 100.0 mg/kg/injection, schedule: Q04DX002 (ip), vehicle: Klucel (hydroxypropylcellulose) (HPC)
[5] = dose: 200.0 mg/kg/injection, schedule: Q01DX009 (ip), vehicle: Klucel (hydroxypropylcellulose) (HPC)
[6] = dose: 200.0 mg/kg/injection, schedule: Q04DX002 (ip), vehicle: Klucel (hydroxypropylcellulose) (HPC)
[7] = dose: 400.0 mg/kg/injection, schedule: Q01DX009 (ip), vehicle: Klucel (hydroxypropylcellulose) (HPC)
[8] = dose: 400.0 mg/kg/injection, schedule: Q04DX002 (ip), vehicle: Klucel (hydroxypropylcellulose) (HPC)
[9] = dose: 100.0 mg/kg/injection, schedule: Q04DX003 (ip), vehicle: Klucel (hydroxypropylcellulose) (HPC)
[10] = dose: 200.0 mg/kg/injection, schedule: Q04DX003 (ip), vehicle: Klucel (hydroxypropylcellulose) (HPC)

With `O=C(O)c1ccccc1C(=O)c1ccc(F)cc1` the T/C [1] was 96 % of control, the T/C [2] was 102 % of control and the T/C [3] was 93 % of control.
`CC[C@@H](O)C[C@H]1CCC[C@@]2(C[C@@H]3OC(=O)/C=C/[C@@](C)(O)[C@@H](O)[C@H](C)[C@@H](O)[C@H](OC4CCC(N(C)C)C(C)O4)[C@@H](O)[C@](C)(O)CCCCC/C=C/[C@@H]4CC(C)(C)O[C@@]4(O)C[C@H](O2)[C@H]3C)O1` (some centres not stated) was tested, and the T/C (dose: 0.25 mg/kg/injection, schedule: Q04DX003 (ip), vehicle: saline) was 104 % of control, the T/C (dose: 0.5 mg/kg/injection, schedule: Q04DX003 (ip), vehicle: saline) was 111 % of control and the T/C (dose: 1.0 mg/kg/injection, schedule: Q04DX003 (ip), vehicle: saline) was 94 % of control. For the same compound, the T/C (dose: 150.0 micrograms/kg/injection, schedule: Q01DX Z (sc), vehicle: steriod suspending solution) was 108 % of control, the T/C (dose: 230.0 micrograms/kg/injection, schedule: Q01DX Z (sc), vehicle: steriod suspending solution) was 102 % of control and the T/C (dose: 345.0 micrograms/kg/injection, schedule: Q01DX Z (sc), vehicle: steriod suspending solution) was 91 % of control.
`COc1cc(OC)c(NC(=S)Nc2ccccc2C(F)(F)F)cc1Cl` was tested, and the T/C [4] was 106 % of control, the T/C [5] was 88 % of control and the T/C [6] was 92 % of control. The T/C [7] was 95 % of control and the T/C [8] was 95 % of control.
For `C=CC1C(OCC)(OCC)CS1(=O)=O` (configuration not stated), the T/C [1] was 93 % of control, the T/C (dose: 100.0 mg/kg/injection, schedule: Q01DX009 (ip), vehicle: acetone) was 106 % of control and the T/C [2] was 98 % of control. For the same compound, the T/C (dose: 200.0 mg/kg/injection, schedule: Q01DX009 (ip), vehicle: acetone) was 100 % of control, the T/C [3] was 95 % of control and the T/C (dose: 400.0 mg/kg/injection, schedule: Q01DX009 (ip), vehicle: acetone) was 106 % of control.
`OCC(O)C(O)C(O)C(O)CNCC(O)C(O)C(O)C(O)CO` (configuration not stated) was tested, and the T/C (dose: 100.0 mg/kg/injection, schedule: Q04DX002 (ip), vehicle: saline) was 98 % of control and 91 % of control and 88 % of control, the T/C (dose: 200.0 mg/kg/injection, schedule: Q04DX002 (ip), vehicle: saline) was 91 % of control and 100 % of control and the T/C (dose: 400.0 mg/kg/injection, schedule: Q04DX002 (ip), vehicle: saline) was 91 % of control and 107 % of control and 95 % of control.
For `CC(=O)NC(CCC(=O)C=[N+]=N)C(=O)O` (configuration not stated), the T/C (dose: 0.1 mg/kg/injection, schedule: Q01DX009 (ip), vehicle: other) was 98 % of control and 100 % of control and 101 % of control, the T/C (dose: 0.2 mg/kg/injection, schedule: Q01DX009 (ip), vehicle: other) was 105 % of control and 116 % of control (2×) and the T/C (dose: 0.2 mg/kg/injection, schedule: Q01DX015 (ip), vehicle: saline) was 108 % of control. The T/C (dose: 0.4 mg/kg/injection, schedule: Q01DX001 (ip), vehicle: saline) was 106 % of control, the T/C (dose: 0.4 mg/kg/injection, schedule: Q01DX009 (ip), vehicle: other) was 100 % of control and the T/C (dose: 0.4 mg/kg/injection, schedule: Q01DX015 (ip), vehicle: saline) was 120 % of control. The T/C (dose: 0.5 mg/kg/injection, schedule: Q01DX001 (ip), vehicle: other) was 109 % of control, the T/C (dose: 0.5 mg/kg/injection, schedule: Q01DX001 (ip), vehicle: saline) was 113 % of control and the T/C (dose: 0.5 mg/kg/injection, schedule: Q04DX003 (ip), vehicle: other) was 113 % of control. The T/C (dose: 0.5 mg/kg/injection, schedule: Q08DX002 (ip), vehicle: other) was 106 % of control, the T/C (dose: 0.6 mg/kg/injection, schedule: Q01DX001 (ip), vehicle: saline) was 110 % of control and the T/C (dose: 0.6 mg/kg/injection, schedule: Q01DX015 (ip), vehicle: saline) was 123 % of control. For the same compound, the T/C (dose: 0.8 mg/kg/injection, schedule: Q01DX009 (ip), vehicle: other) was 119 % of control, the T/C (dose: 1.0 mg/kg/injection, schedule: Q01DX001 (ip), vehicle: other) was 106 % of control and the T/C (dose: 1.0 mg/kg/injection, schedule: Q01DX009 (ip), vehicle: other) was 122 % of control. For the same compound, the T/C (dose: 1.0 mg/kg/injection, schedule: Q01DX015 (ip), vehicle: saline) was 121 % of control, the T/C (dose: 1.0 mg/kg/injection, schedule: Q04DX003 (ip), vehicle: other) was 120 % of control and the T/C (dose: 1.0 mg/kg/injection, schedule: Q08DX002 (ip), vehicle: other) was 109 % of control. For the same compound, the T/C (dose: 1.5 mg/kg/injection, schedule: Q01DX001 (ip), vehicle: saline) was 114 % of control, the T/C (dose: 2.0 mg/kg/injection, schedule: Q01DX001 (ip), vehicle: other) was 111 % of control and the T/C (dose: 2.0 mg/kg/injection, schedule: Q01DX001 (ip), vehicle: saline) was 122 % of control. The T/C (dose: 2.0 mg/kg/injection, schedule: Q01DX009 (ip), vehicle: other) was 96 % of control, the T/C (dose: 2.0 mg/kg/injection, schedule: Q04DX003 (ip), vehicle: other) was 120 % of control and the T/C (dose: 2.0 mg/kg/injection, schedule: Q08DX002 (ip), vehicle: other) was 111 % of control. The T/C (dose: 4.0 mg/kg/injection, schedule: Q01DX001 (ip), vehicle: saline) was 112 % of control, the T/C (dose: 4.0 mg/kg/injection, schedule: Q04DX003 (ip), vehicle: other) was 117 % of control and the T/C (dose: 5.0 mg/kg/injection, schedule: Q01DX001 (ip), vehicle: other) was 111 % of control. The T/C (dose: 5.0 mg/kg/injection, schedule: Q03HX008 (ip), vehicle: other) was 117 % of control, the T/C (dose: 5.0 mg/kg/injection, schedule: Q03HX024 (ip), vehicle: other) was 150 % of control and the T/C (dose: 5.0 mg/kg/injection, schedule: Q08DX002 (ip), vehicle: other) was 121 % of control. The T/C (dose: 10.0 mg/kg/injection, schedule: Q01DX001 (ip), vehicle: other) was 122 % of control, the T/C (dose: 10.0 mg/kg/injection, schedule: Q03HX008 (ip), vehicle: other) was 118 % of control and the T/C (dose: 10.0 mg/kg/injection, schedule: Q03HX024 (ip), vehicle: other) was 187 % of control. The T/C (dose: 16.0 mg/kg/injection, schedule: Q01DX001 (ip), vehicle: saline) was 117 % of control, the T/C (dose: 20.0 mg/kg/injection, schedule: Q03HX008 (ip), vehicle: other) was 110 % of control and the T/C (dose: 20.0 mg/kg/injection, schedule: Q03HX024 (ip), vehicle: other) was 172 % of control. The T/C (dose: 32.0 mg/kg/injection, schedule: Q01DX001 (ip), vehicle: saline) was 118 % of control, the T/C (dose: 40.0 mg/kg/injection, schedule: Q03HX008 (ip), vehicle: other) was 121 % of control and the T/C (dose: 40.0 mg/kg/injection, schedule: Q03HX016 (ip), vehicle: other) was 150 % of control. The T/C (dose: 40.0 mg/kg/injection, schedule: Q03HX024 (ip), vehicle: other) was 112 % of control.
`COc1cc(C(=O)N2CCCCCCC2)cc(OC)c1OC` was tested, and the T/C [9] was 98 % of control and the T/C [10] was 102 % of control.
In the case of `CN(CCCl)c1ccc(C2N(Cc3ccccc3)c3ccccc3N2Cc2ccccc2)cc1`, the T/C (dose: 6.2 mg/kg/injection, schedule: Q01DX001 (ip), vehicle: carboxymethylcellulose (CMC)) is reported as 94 % of control and the T/C (dose: 12.5 mg/kg/injection, schedule: Q01DX001 (ip), vehicle: carboxymethylcellulose (CMC)) is reported as 103 % of control.
In the case of `CCCCCCCCCCOCCCCCCCCCC`, the T/C (dose: 50.0 mg/kg/injection, schedule: Q01DX009 (ip), vehicle: saline) is reported as 92 % of control, the T/C (dose: 100.0 mg/kg/injection, schedule: Q01DX009 (ip), vehicle: saline) is reported as 92 % of control and the T/C (dose: 200.0 mg/kg/injection, schedule: Q01DX009 (ip), vehicle: saline) is reported as 89 % of control.
`S=c1[nH]c(Cc2ccccc2)cs1` was tested, and the T/C (dose: 100.0 mg/kg/injection, schedule: Q01DX001 (sc), vehicle: carboxymethylcellulose (CMC)) was 103 % of control, the T/C (dose: 200.0 mg/kg/injection, schedule: Q01DX001 (sc), vehicle: carboxymethylcellulose (CMC)) was 105 % of control and the T/C (dose: 400.0 mg/kg/injection, schedule: Q01DX001 (sc), vehicle: carboxymethylcellulose (CMC)) was 103 % of control.
`CCN(C(=O)/C=C/c1ccccc1)C1CCCCC1` was tested, and the T/C (dose: 100.0 mg/kg/injection, schedule: Q01DX009 (ip), vehicle: Klucel (hydroxypropylcellulose) (HPC)) was 94 % of control, the T/C [9] was 102 % of control and the T/C [5] was 102 % of control. For the same compound, the T/C [10] was 96 % of control, the T/C [7] was 86 % of control and the T/C (dose: 400.0 mg/kg/injection, schedule: Q04DX003 (ip), vehicle: Klucel (hydroxypropylcellulose) (HPC)) was 105 % of control.
For `Cc1ccc(N=Nc2ccccn2)cc1`, the T/C [4] was 104 % of control, the T/C [6] was 93 % of control and the T/C [8] was 93 % of control.
